The structures appear in SMILES notation.

This series can be described thus: Safety assessments (adverse events) in healthy subjects. Type of series: in vivo, human. As to conditions: Part A, fruquintinib 5 mg alone or with itraconazole, healthy subjects. The protocol: Safety was assessed by evaluation of adverse events (AEs), serious AEs, AEs of special interest, physical examinations, vital signs, single 12‐lead electrocardiograms and cardiac monitoring, and clinical laboratory data. All AEs were coded using the Medical Dictionary for Regulatory Activities Version 23.0, and their severity was graded using the National Cancer Institute Common Terminology Criteria for Adverse Events Version 5.0.

Regarding `CNC(=O)c1c(C)oc2cc(Oc3ncnc4cc(OC)c(OC)cc34)ccc12` [Fruquintinib], the adverse events result is on record as “no AEs reported”.

These data come from PMC12314110, “Evaluation of Potential Effects of CYP3A Inhibition and CYP3A Induction on the Pharmacokinetics of Fruquintinib in Healthy Subjects” (Clinical Pharmacology in Drug Development, 2025).
